Data published in ChEMBL document CHEMBL1133814, “Synthesis and progesterone receptor antagonist activities of 6-aryl benzimidazolones and benzothiazolones” (Bioorg Med Chem Lett, 2001).

Assays:
Progesterone receptor [1] = molecular target: T1, Progesterone receptor (Homo sapiens, UniProt P06401); assay: Inhibitory concentration against progesterone stimulated alkaline phosphatase activity in T47D human breast carcinoma cell line; format: cell-based
T1 sequence (P06401 whole entry): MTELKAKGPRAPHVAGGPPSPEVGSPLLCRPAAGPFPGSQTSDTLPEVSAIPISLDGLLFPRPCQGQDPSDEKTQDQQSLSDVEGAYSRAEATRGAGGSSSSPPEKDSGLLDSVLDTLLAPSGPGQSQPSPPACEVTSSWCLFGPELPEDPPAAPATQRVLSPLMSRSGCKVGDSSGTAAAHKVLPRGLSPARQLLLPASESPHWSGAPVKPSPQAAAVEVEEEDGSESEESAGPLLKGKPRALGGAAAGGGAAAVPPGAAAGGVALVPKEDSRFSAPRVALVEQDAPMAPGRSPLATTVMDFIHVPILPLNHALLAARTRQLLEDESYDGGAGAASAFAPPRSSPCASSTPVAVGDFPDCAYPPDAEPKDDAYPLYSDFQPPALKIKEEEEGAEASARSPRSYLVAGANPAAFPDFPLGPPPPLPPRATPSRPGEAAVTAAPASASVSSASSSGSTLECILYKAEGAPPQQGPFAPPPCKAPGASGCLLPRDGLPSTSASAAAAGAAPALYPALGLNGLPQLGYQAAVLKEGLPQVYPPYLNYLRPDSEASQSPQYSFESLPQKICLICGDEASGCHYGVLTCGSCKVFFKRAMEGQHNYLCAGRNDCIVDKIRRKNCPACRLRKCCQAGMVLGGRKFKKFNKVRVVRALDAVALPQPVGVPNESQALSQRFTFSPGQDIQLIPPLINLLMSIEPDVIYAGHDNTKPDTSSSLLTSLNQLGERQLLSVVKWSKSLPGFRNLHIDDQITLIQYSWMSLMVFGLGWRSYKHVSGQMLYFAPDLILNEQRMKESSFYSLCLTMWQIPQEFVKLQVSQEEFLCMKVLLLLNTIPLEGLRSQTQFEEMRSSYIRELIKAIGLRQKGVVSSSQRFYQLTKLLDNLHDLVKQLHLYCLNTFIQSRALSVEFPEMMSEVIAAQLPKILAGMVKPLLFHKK

Progesterone receptor [2] = molecular target: T1, Progesterone receptor; assay: Binding affinity towards progesterone receptor was measured
Progesterone receptor [3] = molecular target: T1, Progesterone receptor; assay: Inhibitory concentration against progesterone induced PRE-luciferase activity in CV-cells; design: species or system Oryctolagus cuniculus

Compound | IC50 (Progesterone receptor [1]) [nM] | Ki (Progesterone receptor [2]) [nM] | IC50 (Progesterone receptor [3]) [nM]
S=c1[nH]c2ccc(-c3cccc(Cl)c3)cc2n1Cc1ccccc1 | 17 | 150 | 
O=c1[nH]c2ccc(-c3cccc(Cl)c3)cc2s1 | 460 | 127 | 265
Cn1c(=O)[nH]c2ccc(-c3cccc(Cl)c3)cc21 | 1000 |  | 
S=c1[nH]c2cc(-c3cccc(Cl)c3)ccc2n1Cc1ccccc1 | > 10000 |  | 
Oc1nc2cc(-c3cccc(Cl)c3)ccc2n1Cc1ccccc1 | > 10000 | 3130 | 3060
O=[N+]([O-])c1cccc(-c2ccc3[nH]c(=S)n(Cc4ccccc4)c3c2)c1 | 10 | 30 | 

Other lines, results leading:

IC50 (Progesterone receptor [1]) [nM] | Ki (Progesterone receptor [2]) [nM] | IC50 (Progesterone receptor [3]) [nM] | Compound
83.8 | 332 | 326 | O=c1[nH]c2ccc(-c3cccc([N+](=O)[O-])c3)cc2s1
113 | 525 | 412 | CC(C)n1c(=O)[nH]c2ccc(-c3cccc(Cl)c3)cc21
> 10000 | > 10000 | > 10000 | O=[N+]([O-])c1cccc(-c2ccc3c(c2)nc(O)n3Cc2ccccc2)c1
29.2 | ~1000 | 106 | CCn1c(=O)[nH]c2ccc(-c3cccc(Cl)c3)cc21
62 | 714 | 257 | O=c1[nH]c2ccc(-c3cccc([N+](=O)[O-])c3)cc2n1Cc1ccccc1
1000 | > 10000 |  | Cn1c(=O)[nH]c2ccc(-c3cccc([N+](=O)[O-])c3)cc21
113 | 521 |  | O=c1[nH]c2ccc(-c3cccc(Cl)c3)cc2n1Cc1ccccc1
73.1 | 525 | 136 | CC(C)n1c(=O)[nH]c2ccc(-c3cccc([N+](=O)[O-])c3)cc21
